In patent US20130053407A1, “PYRROLO [3,2-D] PYRIMIDIN-3-YL DERIVATIVES USED AS ACTIVATORS OF AMPK” (GlaxoSmithKline LLC, priority 2010, published 2013):

Assays:
[1] = system: Human recombinant AMPK; assay: AMPK Enzymatic Assay (Z'Lyte FRET); type: biochemical; conditions: AMPK activation, ATP 100 μM, peptide 2 μM, means of at least 2 independent experiments
Description: Human recombinant AMPK (Invitrogen #PV4673 & #PV4675) is used in a FRET assay format (Z'Lyte—Invitrogen). Assay conditions are as follow: ATP 100 μM, peptide (Invitrogen #PR8650) 2 μM, 1% final DMSO in Z'Lyte kinase buffer. Reaction is initiated by addition of 0.2-0.8 ng of AMPK and incubated for 1-hour @ 30° C. A further 1-hour incubation @ 30° C. with the development reagent (Invitrogen #PR5194) is performed. FRET signal is then measured and converted to “% peptide phosphorylation” according to Z′Lyte given calculation procedure. Evaluation of compounds is carried out using concentration-response curves. Final data are expressed in “% activation” calculating the ratio of “% peptide phosphorylation” between compound-condition and basal-condition. […] All data are means of at least 2 independent experiments.

[2] = system: ob/ob and db/db mice; conditions: 8 day AICAR administration; cited from earlier work

| Compound | pEC50 [1] | reduces blood glucose [2] [%] |
| --- | --- | --- |
| Cc1cccc(-c2ccc(-n3c(Cl)cc4[nH]c(=O)n(-c5ccc(C#N)cc5)c(=O)c43)cc2)c1O [4-[6-Chloro-5-(2′-hydroxy-3′-methyl-4-biphenylyl)-2,4-dioxo-1,2,4,5-tetrahydro-3H-pyrrolo[3,2-d]pyrimidin-3-yl]benzonitrile] | 5.4 | – |
| COc1cccc(-c2ccc(-n3c(Cl)cc4[nH]c(=O)n(-c5cccc(F)c5)c(=O)c43)cc2)c1O [6-Chloro-3-(3-fluorophenyl)-5-[2′-hydroxy-3′-(methyloxy)-4-biphenylyl]-1H-pyrrolo[3,2-d]pyrimidine-2,4(3H,5H)-dione] | 5.3 | – |
| NC(=O)c1ncn([C@@H]2O[C@H](CO)[C@@H](O)[C@H]2O)c1N [AICAR] | – | 35 |
